Patent US5654296A, “Condensed heterocyclic compounds, their production and use” (priority 1994, dated 1997)
Counter-ions that a name gives are not always drawn.

Key:
serotonine (5-HT) uptake = experiment: Activity to inhibit serotonine (5-HT) uptake; assay type: biochemical; settings: rat whole brain; 3H-5-HT 10 nM; 37° C.; pH 7.4; read-out: 5-HT uptake inhibitory activity (IC50 μM)
Procedure: (a) Activity to inhibit serotonine (5-HT) uptake
The experiment was performed in accordance with the method of Hyttel et al. [Psychopharmacology 60, 13, 1978]. The whole brain of a rat was homogenized in 40 volumes of ice-cooled 0.32M sucrose solution containing 10 μM pargyline and, then, centrifuged (600×G) for 10 minutes. The supernatant was centrifuged (2500×G) for 55 minutes to provide a pellet. This pellet was suspended in Krebs-Ringer-phosphate buffer (pH 7.4; 122 mM NaCl, 4.82 mM KCl, 0.972 mM CaCl2, 1.21 mM MgSO4, 12.7 mM Na2 HPO4, 2.97 mM NaH2 PO4, 0.162 mM EDTA sodium, 10 mM glucose, 1.14 mM ascorbic acid) saturated with a mixed gas (95% O and 5% CO2). To 900 μl of this suspention was added a solution of the test drug (10 μl) in DMSO and the mixture was incubated at 37° C. for 5 minutes. Then, 100 μl of ^3 H-5-HT (final concentration 10 nM) was added and the mixture was further incubated at 37° C. for 5 minutes. This reaction mixture was filtered under suction using a GF/B filter and the filter was washed with 4 ml of the above-mentioned buffer. The radioactivity on the filter was measured by the liquid scintillation method.
The amount of the drug which caused a 50% decrease in 5-HT uptake is shown as 50% inhibitory activity (IC50) in Table 42.

[1] = target: T1, GnRH receptors (rat pituitary anterior lobe membrane fraction) (Rattus norvegicus, UniProt P30969); experiment: 125I-leuprolerin GnRH receptor binding inhibition test, rat pituitary anterior lobe membrane fraction; settings: 4° C., 90 minutes, read-out: Binding inhibitory activity (IC50 μM) Rat
T1 construct: the anterior lobe of the pituitary gland was isolated and washed with ice-cooled homogenate buffer; from tissue; host or cells: anterior lobe of the pituitary gland, male Wistar rats (8 weeks old), membrane fraction
T1 sequence (P30969 1-327): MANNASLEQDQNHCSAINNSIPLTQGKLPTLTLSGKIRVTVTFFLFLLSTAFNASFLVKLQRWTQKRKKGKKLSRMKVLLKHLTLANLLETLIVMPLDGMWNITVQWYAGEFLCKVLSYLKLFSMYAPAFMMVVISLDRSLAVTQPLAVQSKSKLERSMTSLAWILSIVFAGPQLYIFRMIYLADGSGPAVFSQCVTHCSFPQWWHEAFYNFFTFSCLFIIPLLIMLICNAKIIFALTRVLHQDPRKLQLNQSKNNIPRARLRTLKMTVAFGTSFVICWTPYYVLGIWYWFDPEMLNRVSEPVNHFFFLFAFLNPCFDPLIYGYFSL
Procedure: Ten (10) μl of 3×10^4 M aqueous leuprolerin solution and 10 μl of 0.01 mg/ml lactoperoxidase were taken in a tube and 10 μl of Na^125 I solution (37 MBq) was added. After stirring, 10 μl of 0.001% H2 O2 was added and the reaction was conducted at room temperature for 20 minutes. Then, 700 μl of 0.05% TFA solution was added to the tube to terminate the reaction and the reaction mixture was purified by reverse-phase HPLC. The HPLC conditions are shown below. ^125 I-leuprolerin was eluted after a retention time of 26-27 minutes. (B) Preparation of a Rat Pituitary Anterior Lobe Membrane Fraction Containing GnRH Receptors […] The pituitary tissue was floated in 2 ml of the homogenate buffer and homogenized using a Polytron homogenizer. The homogenate was centrifuged at 700×G for 15 minutes. The supernatant was taken in an ultracentrifuge tube and centrifuged at 100,000×G for 1 hour to provide a membrane fraction pellet. […] The membrane fraction recovered as a pellet was resuspended in 10 ml of assay buffer, divided into portions, preserved at -80° C. and thawed when needed. […] For the rat and human membrane fractions prepared in (B) and (D), each membrane fraction was diluted with assay buffer to a concentration of 200 μg/ml and distributed in 188 μl portions into tubes. As to the bovine membrane fraction prepared in (C), the membrane fraction was diluted with assay buffer to 750 μg/ml and distributed in 188 μl portions into tubes. […] Where the rat or bovine pituitary anterior lobe membrane fraction was used, the reaction was conducted at 4° C. for 90 minutes. Where the membrane fraction of the CHO with human GnRH receptors expressed was used, the reaction was carried out at 25° C. for 60 minutes. […] After filtration, the radioactivity of ^125 I-leuprolerin remaining on the filter was measured with a γ-counter. The expression (TB-SB)/(TB-NSB)×100 (where SB=radioactivity with the compound added, TB=maximum bound radioactivity, NSB=nonspecifically bound radioactivity) was calculated to find the binding inhibition rate of each test compound.

Row | Structure (SMILES) | IC50 (serotonine (5-HT) uptake) [µM] | IC50 [1] [µM]
1 | COc1ccc2c(c1)CCC1(CCCCN1CCCC1(c3ccccc3)COCc3ccccc31)C2 (centres unmarked) [Example I-36, 3,4-Dihydro-6-methoxy-1'-[3-(4-phenylisochroman-4-yl)propyl]spiro[naphthalene-2(1H),2'-piperidine] hydrochloride] | 0.0051 | 0.6
2 | c1ccc(C2(CCCN3CCCCC34CCc3ccccc3C4)COCc3ccccc32)cc1 (centres unmarked) [Example I-35, 3,4-Dihydro-1'-[3-(4-phenylisochroman-4-yl)propyl]spiro[naphthalene-2(1H),2'-piperidine] hydrochloride] | 0.13 | 0.7
3 | COc1cc2c(cc1OC)CC1(CCCCN1CCCCC1(c3ccccc3)COCc3ccccc31)CC2 (centres unmarked) [Example I-52, 3,4-Dihydro-6,7-dimethoxy-1'-[4-(4-phenylisochroman-4-yl)butyl]spiro[naphthalene-2(1H),2'-piperidine] hydrochloride] |  | 0.03
4 | COC(=O)c1cccc(CNCCCC2(c3ccccc3)COCc3ccccc32)c1 (stereo not drawn) [Example I-45, Methyl α-[3-(4-Phenylisochroman-4-yl)propylamino]-m-toluate hydrochloride] |  | 0.5
5 | c1ccc(CCNCCCC2(c3ccccc3)COCc3ccccc32)cc1 (stereo not drawn) [Example I-24, 4-[3-(β-Phenethylamino)propyl]-4-phenylisochroman hydrochloride] | 0.26 | 0.9
